Assay results reported in patent USRE47689E1, “Compounds for treating spinal muscular atrophy” (PTC Therapeutics, Inc., priority 2011, dated 2019).
Counter-ions that a name gives are not always drawn.

Legend:
[1] = test system: SMN2 minigene (full length SMN2 minigene mRNA containing SMN2 exon 7); assay: SMN2 minigene mRNA splicing RT-qPCR assay in cultured cells; format: cell-based, human; conditions: HEK293H cells stably transfected with SMN2-A minigene, 24 hours, 7-point concentration curve, 1.5-fold relative to vehicle-treated cells; for EC (1.5-fold): Homo sapiens, HEK293-H, read-out: EC1.5x for production of full length SMN2 mRNA
Procedure, shortened: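 Full-length SMN2 minigene mRNA (exon 7 included), minigene-specific and not endogenous SMN, quantified by RT-qPCR multiplexed with GAPDH in stably transfected HEK293H cells after 24 h compound exposure at 37° C. Abundance from efficiency-corrected Ct, normalized to GAPDH and vehicle; EC1.5x reported as star bins.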

[2] = test system: Smn protein; assay: Smn protein assay in cultured cells (SMN HTRF); format: cell-based, human; conditions: 48 hours; for EC1.5x (concentration giving 1.5-fold Smn protein increase): SMA Type 1 patient fibroblast cells (GM03813), 7-point concentration curve, SMN HTRF, concentration producing 1.5 times Smn protein vs DMSO vehicle control, read-out: EC1.5x for Smn protein expression; for maximum fold (Fold) increase of Smn protein: SMA patient fibroblast cells, 7-point concentration data, fold increase relative to vehicle control (SMN HTRF)
Procedure, shortened: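 Smn in SMA fibroblast lysates, measured by anti-SMN HTRF after 48 h compound exposure; EC1.5x from fold change over vehicle.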

Row | SMILES | EC (1.5-fold) [1] [µM] | EC1.5x (concentration giving 1.5-fold Smn protein increase) [2] [nM] | maximum fold (Fold) increase of Smn protein [2] | EC1.5x for production of full length SMN2 mRNA [1]
1 | Cc1cn2cc(-c3cc4ccc(N5CC6(CNC6)C5)cc4oc3=O)nc2c(C)n1 [Cpd 971, 7-(2,6-diazaspiro[3.3]hept-2-yl)-3-(6,8-dimethylimidazo[1,2-a]pyrazin-2-yl)-2H-chromen-2-one] | < 0.1 | < 300 | ***** (fold increase >1.65) | 
2 | Cc1cn2cc(-c3cc4ccc(N5CCC(O)CC5)cc4oc3=O)nc2c(C)n1 [Compound 975, 3-(6,8-dimethylimidazo[1,2-a]pyrazin-2-yl)-7-(4-hydroxypiperidin-1-yl)-2H-chromen-2-one] | 0.3 to 1 |  | *** (fold increase between >1.35 and ≤1.5) | 
3 | CSc1nccn2cc(-c3cc4ccc(N5CCCN(C)CC5)cc4oc3=O)nc12 [Compound 401, 7-(4-methyl-1,4-diazepan-1-yl)-3-[8-(methylsulfanyl)imidazo[1,2-a]pyrazin-2-yl]-2H-chromen-2-one] | 1 to 3 |  | * (maximum fold increase of ≤1.2) | 
4 | CC(=O)O.Cc1ccn2cc(-c3cc4ccc(N(C)C5CCN(Cc6ccccc6)C5)cc4oc3=O)nc2n1 (stereo not shown) [Compound 377, 7-[(1-benzylpyrrolidin-3-yl)(methyl)amino]-3-(7-methylimidazo[1,2-a]pyrimidin-2-yl)-2H-chromen-2-one acetate] | 0.3 to 1 |  | * (maximum fold increase of ≤1.2) | 
5 | Cc1cn2cc(-c3cc4ccc(N[C@H]5CCNC5)cc4oc3=O)nc2c(C)n1 [Cpd 563, 3-(6,8-dimethylimidazo[1,2-a]pyrazin-2-yl)-7-[(3S)-pyrrolidin-3-ylamino]-2H-chromen-2-one] | < 0.1 | < 300 | ***** (fold increase >1.65) | 
6 | O=c1oc2cc(N3CCNCC3)ccc2cc1-c1ccc2nccn2c1 [Compound 980, 3-(imidazo[1,2-a]pyridin-6-yl)-7-(piperazin-1-yl)-2H-chromen-2-one] | 0.3 to 1 |  | *** (fold increase between >1.35 and ≤1.5) | 
7 | Cc1cn2cc(-c3cc4ccc(CCNCCO)cc4oc3=O)nc2c(C)n1 [Compound 870, 3-(6,8-dimethylimidazo[1,2-a]pyrazin-2-yl)-7-{2-[(2-hydroxyethyl)amino]ethyl}-2H-chromen-2-one] | < 0.1 | < 300 | **** (fold increase between >1.5 and ≤1.65) | 
8 | Cc1ccn2cc(-c3cc4ccc(N5CCN(C)CC5)cc4oc3=O)nc2n1 [Compound 224, 3-(7-methylimidazo[1,2-a]pyrimidin-2-yl)-7-(4-methylpiperazin-1-yl)-2H-chromen-2-one] | 0.3 to 1 |  | * (maximum fold increase of ≤1.2) | 
9 | O=c1oc2cc(N3CCNCC3)ccc2cc1-c1cn2cc(F)ccc2n1 [Compound 103, 3-(6-fluoroimidazo[1,2-a]pyridin-2-yl)-7-(piperazin-1-yl)-2H-chromen-2-one] | 0.3 to 1 |  | ** (fold increase between >1.2 and ≤1.35) | 
10 | CN1CCN(c2ccc3cc(-c4nc5ncccc5o4)c(=O)oc3c2)CC1 [Compound 111, 7-(4-methylpiperazin-1-yl)-3-([1,3]oxazolo[4,5-b]pyridin-2-yl)-2H-chromen-2-one] | 3 to 30 |  | ** (fold increase between >1.2 and ≤1.35) | 
11 | Cc1cn2cc(-c3cc4ccc(N5CCN[C@H](C)C5)cc4oc3=O)cnc2n1 [Compound 650, 3-(2-methylimidazo[1,2-a]pyrimidin-6-yl)-7-[(3R)-3-methylpiperazin-1-yl]-2H-chromen-2-one] | < 0.1 | 300 to 1000 | **** (fold increase between >1.5 and ≤1.65) | 
12 | CCN1CCN(c2ccc3cc(-c4cn5cc(C)nc(C)c5n4)c(=O)oc3c2)C[C@H]1C [Compound 679, 3-(6,8-dimethylimidazo[1,2-a]pyrazin-2-yl)-7-[(3R)-4-ethyl-3-methylpiperazin-1-yl]-2H-chromen-2-one] | < 0.1 | < 300 | ***** (fold increase >1.65) | 
13 | O=c1oc2cc(N3CC4CC3CN4)ccc2cc1-c1nc2ccccc2o1 (stereo not shown) [Compound 85, 3-(1,3-benzoxazol-2-yl)-7-(2,5-diazabicyclo[2.2.1]hept-2-yl)-2H-chromen-2-one] | 3 to 30 |  | * (maximum fold increase of ≤1.2) | 
14 | CCN1CCN(c2ccc3cc(-c4cn5cc(C)nc(C)c5n4)c(=O)oc3c2)C[C@@H]1C(C)C [Compound 810, 3-(6,8-dimethylimidazo[1,2-a]pyrazin-2-yl)-7-[(3S)-4-ethyl-3-(propan-2-yl)piperazin-1-yl]-2H-chromen-2-one] | 0.3 to 1 | 1000 to 3000 | **** (fold increase between >1.5 and ≤1.65) | 
15 | Cc1cn2cc(-c3cc4ccc(N5CCCN(C)CC5)cc4oc3=O)cc2c(C)n1 [Compound 681, 3-(1,3-dimethylpyrrolo[1,2-a]pyrazin-7-yl)-7-(4-methyl-1,4-diazepan-1-yl)-2H-chromen-2-one] | < 0.1 | < 300 | **** (fold increase between >1.5 and ≤1.65) | 
16 | O=c1oc2cc(N3CCNCC3)ccc2cc1-c1nc2ccccc2s1 [Cpd 4, 3-(1,3-benzothiazol-2-yl)-7-(piperazin-1-yl)-2H-chromen-2-one hydrochloride] | 1 to 3 |  | * (maximum fold increase of ≤1.2) | 
17 | Cc1cn2cc(-c3cc4ccc(N5CCN6CCC[C@H]6C5)cc4oc3=O)nc2cn1 [Compound 609, 7-[(8aS)-hexahydropyrrolo[1,2-a]pyrazin-2(1H)-yl]-3-(6-methylimidazo[1,2-a]pyrazin-2-yl)-2H-chromen-2-one] | < 0.1 | < 300 | ***** (fold increase >1.65) | 
18 | Cc1cn2cc(-c3cc4ccc(N5CCN(C)CC5)cc4oc3=O)nc2cn1 [Compound 568, 3-(6-methylimidazo[1,2-a]pyrazin-2-yl)-7-(4-methylpiperazin-1-yl)-2H-chromen-2-one] | < 0.1 | < 300 | ***** (fold increase >1.65) | 
19 | Cc1cn2cc(-c3cc4ccc(N5CC6(CC(N)C6)C5)cc4oc3=O)nc2c(C)n1 [Compound 977, 7-(6-amino-2-azaspiro[3.3]hept-2-yl)-3-(6,8-dimethylimidazo[1,2-a]pyrazin-2-yl)-2H-chromen-2-one] | 1 to 3 |  | * (maximum fold increase of ≤1.2) | 
20 | O=C(O)C(F)(F)F.O=c1oc2cc(N3CCNCC3)ccc2cc1-c1nc2cccc(C(F)(F)F)c2o1 [Compound 2, 7-(piperazin-1-yl)-3[7-(trifluoromethyl)-1,3-benzoxazol-2-yl]-2H-chromen-2-one trifluoroacetate] | 0.3 to 1 |  | * (maximum fold increase of ≤1.2) | 
21 | CCCN1CCC(c2ccc3cc(-c4cn5cc(C)ncc5n4)c(=O)oc3c2)CC1 [Compound 887, 3-(6-methylimidazo[1,2-a]pyrazin-2-yl)-7-(1-propylpiperidin-4-yl)-2H-chromen-2-one] | < 0.1 | < 300 | ***** (fold increase >1.65) | 
22 | Cc1cc2sc(-c3cc4ccc(N5CCN(C)CC5)cc4oc3=O)cc2c(C)n1 [Compound 819, 3-(4,6-dimethylthieno[3,2-c]pyridin-2-yl)-7-(4-methylpiperazin-1-yl)-2H-chromen-2-one] | < 0.1 |  | *** (fold increase between >1.35 and ≤1.5) | 
23 | Cc1cc2oc(-c3cc4ccc(N5CCN(C)CC5)cc4oc3=O)cc2c(C)n1 [Compound 832, 3-(4,6-dimethylfuro[3,2-c]pyridin-2-yl)-7-(4-methylpiperazin-1-yl)-2H-chromen-2-one] | 1 to 3 |  | * (maximum fold increase of ≤1.2) | 
24 | C[C@H]1CN(c2ccc3cc(-c4cc5cnccc5s4)c(=O)oc3c2)CCN1 [Compound 629, 7-[(3S)-3-methylpiperazin-1-yl]-3-(thieno[3,2-c]pyridin-2-yl)-2H-chromen-2-one] | 0.3 to 1 |  | * (maximum fold increase of ≤1.2) | 
25 | Cc1cn2cc(-c3cc4ccc(N5C[C@H]6CCCN(C)[C@H]6C5)cc4oc3=O)nc2c(C)n1 [Compound 782, 3-(6,8-dimethylimidazo[1,2-a]pyrazin-2-yl)-7-[(4aR,7aR)-1-methyloctahydro-6H-pyrrolo[3,4-b]pyridin-6-yl]-2H-chromen-2-one] |  | < 300 | **** (fold increase between >1.5 and ≤1.65) | ***** (EC1.5x≤0.1 μM)
26 | Cc1nccn2cc(-c3cc4ccc(N5CCN[C@@H](C)C5)cc4oc3=O)nc12 [Compound 573, 3-(8-methylimidazo[1,2-a]pyrazin-2-yl)-7-[(3S)-3-methylpiperazin-1-yl]-2H-chromen-2-one] | 0.3 to 1 | < 300 | **** (fold increase between >1.5 and ≤1.65) | 
